Source: article PMC6318274, “Lattice engineering enables definition of molecular features allowing for potent small-molecule inhibition of HIV-1 entry” (Nature Communications, 2019)
Where two headings read alike, the source gives them in different places.

System: HIV-1 Env-pseudoviruses (208-strain panel)
Experiment: microbe, parasite or virus in culture
Assay type: cell-based
Conditions: Human immunodeficiency virus 1, TZM-bl, read-out: IC50
Procedure: Neutralization was measured using single-round-of-infection HIV-1 Env-pseudoviruses and TZM-bl target cells (ARP Cat No. #8129)[44],[45]. Compounds were prepared at 400 μM with 4% DMSO (dimethyl sulfoxide) in PBS (phosphate-buffered saline) and diluted 20 times as the starting concentration for serial dilution in the neutralization assays. […] After incubation at 37 °C for 2 days, infection of target cells was measured by luciferase activity. Neutralization curves were fit by nonlinear regression using a five-parameter hill slope equation[45].

Q: Which results are given for COc1cnc(-c2csc(C(=O)NCCO)n2)c2[nH]cc(C(=O)C(=O)N3CCC(=C(C#N)c4ccccc4)CC3)c12 [BMS-818251]?
A: IC50 (6545.v4.c1, clade AC): 0.5 nM; IC50 (6631.v3.c10, clade C): 0.1 nM; IC50 (6644.v2.c33, clade C): 2 nM; IC50 (6785.v5.c14, clade C): 6 nM; IC50 (6838.v1.c35, clade C): 0.4 nM; IC50 (7165.18 (Clade B)): 11 nM; IC50 (0013095-2.11, clade C): 0.1 nM; IC50 (16055-2.3, clade C): 0.3 nM; IC50 (16845-2.22, clade C): 0.1 nM; IC50 (16936-2.21, clade C): 0.4 nM; IC50 (25710-2.43, clade C): 0.1 nM; IC50 (25711-2.4, clade C): 1 nM; IC50 (25925-2.22, clade C): 0.1 nM; IC50 (26191-2.48, clade C): 0.1 nM; IC50 (57128.vrc15, clade D): 0.6 nM; IC50 (191821.E6.1, clade D): 0.1 nM; IC50 (231965.c01, clade D): 0.1 nM; IC50 (620345.c1, clade AE): 49 nM; IC50 (A07412M1.vrc12, clade D): 1 nM; IC50 (AC10.29, clade B): 0.2 nM; IC50 (ADA.DG, clade B): 0.1 nM; IC50 (BB201.B42, clade A): 4 nM; IC50 (BB539.2B13, clade A): 0.2 nM; IC50 (BG1168.01, clade B): 1 nM; IC50 (BI369.9A, clade A): 0.3 nM; IC50 (BJOX002000.03.2, clade BC): 0.2 nM; IC50 (BJOX009000.02.4, clade AE): 105 nM; IC50 (BJOX010000.06.2, clade AE): 1660 nM; IC50 (BJOX025000.01.1, clade AE): 178 nM; IC50 (BJOX028000.10.3 (Clade AE)): 236 nM; IC50 (BL01.DG (Clade B)): 2960 nM; IC50 (BR07.DG, clade B): 641 nM; IC50 (BR025.9, clade C): 880 nM; IC50 (BS208.B1, clade A): 0.3 nM; IC50 (BX08.16, clade B): 0.1 nM; IC50 (C1080.c3, clade AE): 5380 nM; IC50 (C2101.c1, clade AE): 1470 nM; IC50 (C3347.c11, clade AE): 452 nM; IC50 (C4118.09 (Clade AE)): 59 nM; IC50 (CAAN.A2, clade B): 0.1 nM; IC50 (CAP45.G3, clade C): 4 nM; IC50 (CAP210.E8 (Clade C)): 14 nM; IC50 (CAP244.D3, clade C): 0.1 nM; IC50 (CE703010217.B6, clade C): 0.1 nM; IC50 (CH038.12, clade BC): 92 nM; IC50 (CH070.1, clade BC): 0.8 nM; IC50 (CH117.4, clade BC): 0.4 nM; IC50 (CH119.10 (Clade BC)): 0.1 nM; IC50 (CH181.12, clade BC): 0.1 nM; IC50 (CM244.ec1, clade AE): 260 nM; IC50 (CNE3, clade AE): 61 nM; IC50 (CNE4, clade B): 4730 nM
